US9415009B2 (Pearl Therapeutics, Inc., priority 2009, dated 2016)
Blank lines part the entries; values can stand above or below the compound they belong to.

Assay: Particle size distribution by laser diffraction (Sympatec, Fraunhofer mode)
Type: physicochemical
Conditions: for optical diameter that 50% by volume of the micronized particles are smaller than / optical diameter that 90% by volume of the micronized particles are smaller than: micronized active agent particles
[1] = Example 4, Table 2, micronized API
[2] = Example 9, Table 9, primary particle size
[3] = Example 10, Table 11, Triple GFM primary particle size
[4] = Example 10, Table 12, Triple TFM primary particle size

SMILES: CCC(=O)O[C@]1(C(=O)SCF)[C@H](C)C[C@H]2[C@@H]3C[C@H](F)C4=CC(=O)C=C[C@]4(C)[C@@]3(F)[C@@H](O)C[C@@]21C [FP, S-(fluoromethyl)6^α,9-difluoro-11^β-17-dihydroxy-16^α-methyl-3-oxoandrosta-1,4-diene-17^β-carbothioate, 17-propionate]
optical diameter that 50% by volume of the micronized particles are smaller than: 2.6 μm
optical diameter that 90% by volume of the micronized particles are smaller than: 6.6 μm

SMILES: C[N+]1(C)[C@@H]2C[C@@H](OC(=O)C(O)(c3cccs3)c3cccs3)C[C@H]1[C@@H]1O[C@@H]12 [Micronized Tiotropium Bromide Anhydrous, tiotropium bromide]
Span [4]: 2.7
d10 (μm) [4]: 0.5 μm
d50 (μm) [4]: 1.3 μm
d90 (μm) [4]: 3.9 μm

SMILES: OCc1cc(C(O)CNCCCCCCOCCCCc2ccccc2)ccc1O (stereo not drawn) [SX, 4-hydroxy-α1-[[[6-(4-phenylbutoxy)hexyl]amino]methyl]-1,3-benzenedimethanol, 1-hydroxy-2-naphthalenecarboxylate]
optical diameter that 50% by volume of the micronized particles are smaller than: 2 μm
optical diameter that 90% by volume of the micronized particles are smaller than: 3.9 μm

More lines, now with the values ahead:

Span [1]: 2.0
SMILES: COc1ccc(C[C@@H](C)NC[C@H](O)c2ccc(O)c(NC=O)c2)cc1 (racemic) [Coarse FF API, (±)-2-hydroxy-5-[(1RS)-1-hydroxy-2-[[(1RS)-2-(4-methoxyphenyl)-1-methylethyl]-amino]ethyl]formanilide]

Span [2]: 1.8
Span [3]: 1.9
Span [4]: 1.9
Span (Example 11, Table 14): 1.8
SMILES: COc1ccc(C[C@@H](C)NC[C@H](O)c2ccc(O)c(NC=O)c2)cc1 (racemic) [FF API, (±)-2-hydroxy-5-[(1RS)-1-hydroxy-2-[[(1RS)-2-(4-methoxyphenyl)-1-methylethyl]-amino]ethyl]formanilide]

Span [1]: 1.5
d90 (μm) [1]: 2.3 μm
SMILES: COc1ccc(C[C@@H](C)NC[C@H](O)c2ccc(O)c(NC=O)c2)cc1 (racemic) [Fine FF API, (±)-2-hydroxy-5-[(1RS)-1-hydroxy-2-[[(1RS)-2-(4-methoxyphenyl)-1-methylethyl]-amino]ethyl]formanilide]

Span [2]: 2.2
×10 (μm) [2]: 0.4 μm
×50 (μm) [2]: 1.1 μm
×90 (μm) [2]: 2.8 μm
Span [3]: 1.9
d10 (μm) [3]: 0.4 μm
d50 (μm) [3]: 1.0 μm
d90 (μm) [3]: 2.3 μm
Span [4]: 2.2
d10 (μm) [4]: 0.4 μm
d50 (μm) [4]: 1.1 μm
d90 (μm) [4]: 2.8 μm
optical diameter that 50% by volume of the micronized particles are smaller than: 1.6 μm
optical diameter that 90% by volume of the micronized particles are smaller than: 3.5 μm
SMILES: C[C@@H]1C[C@H]2[C@@H]3CCC4=CC(=O)C=C[C@]4(C)[C@@]3(Cl)[C@@H](O)C[C@]2(C)[C@@]1(OC(=O)c1ccco1)C(=O)CCl [MF, 9α,21-dichloro-11β,17-dihydroxy-16α-methylpregna-1,4-diene-3,20-dione 17-(2-furoate)]
